Key:
[1] = Assessment of hydrolysis rate under spray drying feed conditions (pH 8.0 buffer/limonene emulsion); assay type: physicochemical; details: pH 8.0 phosphate buffer; for t50 at pH 8.0: precursor dissolved in limonene, emulsion, time to 50% of maximum absorbance
Method: Acetaldehyde precursors suitable for rendering into dry powders must avoid releasing significant levels of acetaldehyde during various stages of processing. In particular they should resist hydrolysis during the preparation of a spray drying feed emulsion, which can be neutral to basic pH and can contain a significant volume fraction of an oil phase.
A pH 8.0 buffer solution was prepared by adding 49.92 g disodium phosphate heptahydrate (CAS 7782-85-6) and 1.93 g monosodium phosphate (CAS 7558-80-7) to 1 L of deionised water. Aliquots of 0.20 g the Example 1-2 preparations were dissolved in 0.8 g of limonene (CAS 5989-25-7) added to 10 g of the buffer solution within a 30 mL Erlenmeyer flask containing a stir bar. The concentration of acetaldehyde in solution was monitored as a function of time using a UV/V is spectrometer probe measuring absorbance at 276 nm. Stirring was periodically stopped to allow oil droplets to rise to the surface and collect an unobscured absorbance reading of the aqueous solution. Release followed mixed zero and first order kinetics. t50 (the time to 50% of the maximum absorbance) values are reported in Table 2. […] Comparative Sample 1 has t50 of 2.1 minutes, which is so short that a person skilled in the art would consider this compound at risk of experiencing a problematic degree of hydrolysis during processing. Example 1 has a much longer t50 value and released acetaldehyde more slowly than Comparative Sample 1.

[2] = Assessment of hydrolysis rate at pH 3.0 (acetaldehyde release, UV absorbance at 276 nm); assay type: physicochemical; details: pH 3.0 buffer
Method: Instant beverage applications require rapid hydrolysis of the precursor molecules in order to rapidly release acetaldehyde. Because such beverages might be consumed immediately upon preparation, it is desired for the release to be as rapid as possible.
A pH 3.0 buffer solution was prepared by adding 16.43 g citric acid (CAS 77-92-9) and 4.26 g disodium citrate (CAS 144-33-2) to 1 L of deionized water. Aliquots of the Example 1-2 preparations were added to the buffer solution within a Distek 2100B USP 2 dissolution system stirring at 200 rpm. The concentration of acetaldehyde in solution was monitored as a function of time using a UV/V is spectrometer probe which measured absorbance at 276 nm every 1 second. Results for comparative samples were taken from work by Gassenmeier et al..

t50 ([1]; limonene emulsion) [min]	t50 at pH 8.0 [1]	Compound	Rate of acetaldehyde release compared with comparative samples [2]	Increase in absorbance at 276 nm (release of acetaldehyde) ([1]; limonene emulsion, over 1 hour)
2.1	2.1 min	CCOC(C)OC(C)=O (centres unmarked) [Comparative Sample 1, 1-ethoxyethyl acetate, reference compound]	–	–
–	>>1 hour	C=CC1(C)CCC(C(C)(C)OC(C)OCC)O1 (centres unmarked) [Example 1, 5-(2-(1-ethoxyethoxy)propan-2-yl)-2-methyl-2-vinyltetrahydrofuran]	released acetaldehyde faster than Comparative Samples 2-5	no measurable increase in absorbance over 1 hour
